Data as given in ChEMBL document CHEMBL1201862, “PubChem BioAssay data set” (2004).
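Step 1: Grow cells in 96-well plates. Step 2: Expose to compound for 48 hours at 5 concentrations. Step 3: Interpolate endpoints linearly; if unreached, use highest concentration. Here, GI50 denotes the concentration required for 50% inhibition of growth.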 Active and inactive are the calls of the source. Rule as the data show it: active = GI50 up to about 1.1 µM and inactive = higher.

What was measured:
Test in all cases: NCI tumour cell line growth inhibition, 48 h
786-0 = system: 786-0
A498 = system: A498
A549 = system: A549
ACHN = system: ACHN
BT-549 = system: BT-549
CAKI-1 = system: CAKI-1
CCRF-CEM = system: CCRF-CEM
COLO 205 = system: COLO 205
DU-145 = system: DU-145
EKVX = system: EKVX
HCC 2998 = system: HCC 2998
HCT-116 = system: HCT-116
HCT-15 = system: HCT-15
HL-60 = system: HL-60
HOP-62 = system: HOP-62
HOP-92 = system: HOP-92
HT-29 = system: HT-29
Hs-578T = system: Hs-578T
IGROV-1 = system: IGROV-1
K562 = system: K562
KM12 = system: KM12
LOX IMVI = system: LOX IMVI
M14 = system: M14
MCF7 = system: MCF7
MDA-MB-231 = system: MDA-MB-231
MDA-MB-435 = system: MDA-MB-435
MDA-N = system: MDA-N
MOLT-4 = system: MOLT-4
Malme-3M = system: Malme-3M
NCI-H226 = system: NCI-H226
NCI-H23 = system: NCI-H23
NCI-H460 = system: NCI-H460
NCI-H522 = system: NCI-H522
NCI/ADR-RES = system: NCI/ADR-RES
OVCAR-3 = system: OVCAR-3
OVCAR-4 = system: OVCAR-4
OVCAR-5 = system: OVCAR-5
OVCAR-8 = system: OVCAR-8
PC-3 = system: PC-3
RPMI-8226 = system: RPMI-8226
SF-268 = system: SF-268
SF-295 = system: SF-295
SF-539 = system: SF-539
SK-MEL-28 = system: SK-MEL-28
SK-MEL-2 = system: SK-MEL-2
SK-MEL-5 = system: SK-MEL-5
SK-OV-3 = system: SK-OV-3
SN12C = system: SN12C
SNB-19 = system: SNB-19
SNB-75 = system: SNB-75
SR = system: SR
SW-620 = system: SW-620
TK-10 = system: TK-10
U-251 = system: U-251
UACC-257 = system: UACC-257
UACC-62 = system: UACC-62
UO-31 = system: UO-31

`N#CC1(C#N)NC(c2ccsc2)C(C#N)(C#N)NC1c1ccsc1` (configuration not stated) was tested, and the GI50 (786-0) was > 100 µM (inactive), the GI50 (A498) was > 100 µM (inactive) and the GI50 (A549) was > 100 µM (inactive). For the same molecule, the GI50 (ACHN) was > 100 µM (inactive), the GI50 (BT-549) was > 100 µM (inactive) and the GI50 (CAKI-1) was > 100 µM (inactive). The GI50 (CCRF-CEM) was 80.2 µM (inactive), the GI50 (COLO 205) was > 100 µM (inactive) and the GI50 (DU-145) was > 100 µM (inactive). The GI50 (EKVX) was > 100 µM (inactive), the GI50 (HCC 2998) was > 100 µM (inactive) and the GI50 (HCT-116) was > 100 µM (inactive). The GI50 (HCT-15) was > 100 µM, the GI50 (HL-60) was > 100 µM (inactive) and the GI50 (HOP-62) was > 100 µM (inactive). For the same molecule, the GI50 (HOP-92) was > 100 µM (inactive), the GI50 (HT-29) was > 100 µM (inactive) and the GI50 (Hs-578T) was > 100 µM (inactive). The GI50 (IGROV-1) was > 100 µM (inactive), the GI50 (K562) was > 100 µM (inactive) and the GI50 (KM12) was > 100 µM (inactive). The GI50 (LOX IMVI) was > 100 µM (inactive), the GI50 (M14) was > 100 µM (inactive) and the GI50 (MCF7) was > 100 µM (inactive). The GI50 (MDA-MB-231) was > 100 µM (inactive), the GI50 (MDA-MB-435) was > 100 µM (inactive) and the GI50 (MDA-N) was > 100 µM (inactive). The GI50 (MOLT-4) was > 100 µM (inactive), the GI50 (Malme-3M) was > 100 µM (inactive) and the GI50 (NCI-H226) was > 100 µM (inactive). The GI50 (NCI-H23) was > 100 µM (inactive), the GI50 (NCI-H460) was > 100 µM (inactive) and the GI50 (NCI-H522) was > 100 µM (inactive). For the same molecule, the GI50 (NCI/ADR-RES) was > 100 µM (inactive), the GI50 (OVCAR-3) was > 100 µM (inactive) and the GI50 (OVCAR-4) was > 100 µM (inactive). The GI50 (OVCAR-5) was > 100 µM (inactive), the GI50 (OVCAR-8) was > 100 µM (inactive) and the GI50 (PC-3) was > 100 µM (inactive). The GI50 (RPMI-8226) was > 100 µM (inactive), the GI50 (SF-268) was > 100 µM (inactive) and the GI50 (SF-295) was > 100 µM (inactive). For the same molecule, the GI50 (SF-539) was > 100 µM (inactive), the GI50 (SK-MEL-28) was > 100 µM (inactive) and the GI50 (SK-MEL-2) was > 100 µM (inactive). For the same molecule, the GI50 (SK-MEL-5) was > 100 µM (inactive), the GI50 (SK-OV-3) was > 100 µM (inactive) and the GI50 (SN12C) was > 100 µM (inactive). For the same molecule, the GI50 (SNB-19) was > 100 µM (inactive), the GI50 (SNB-75) was > 100 µM (inactive) and the GI50 (SR) was > 100 µM (inactive). The GI50 (SW-620) was > 100 µM (inactive), the GI50 (TK-10) was > 100 µM (inactive) and the GI50 (U-251) was > 100 µM (inactive). For the same molecule, the GI50 (UACC-257) was > 100 µM (inactive), the GI50 (UACC-62) was > 100 µM (inactive) and the GI50 (UO-31) was > 100 µM (inactive).
